According to article PMC11249626, “Fluorophore-Labeled Pyrrolones Targeting the Intracellular Allosteric Binding Site of the Chemokine Receptor CCR1” (ACS Pharmacology & Translational Science, 2024):
Where two headings read alike, the source gives them in different places.

Experiments:
CCR2 [1] = biological target: T1, CCR2 (Homo sapiens, UniProt P41597); set-up: method as in PMID 30256641; details: cited from earlier work
T1 construct: host or cells: HEK293T, transient
T1 sequence (P41597 1-360 isoform P41597-2): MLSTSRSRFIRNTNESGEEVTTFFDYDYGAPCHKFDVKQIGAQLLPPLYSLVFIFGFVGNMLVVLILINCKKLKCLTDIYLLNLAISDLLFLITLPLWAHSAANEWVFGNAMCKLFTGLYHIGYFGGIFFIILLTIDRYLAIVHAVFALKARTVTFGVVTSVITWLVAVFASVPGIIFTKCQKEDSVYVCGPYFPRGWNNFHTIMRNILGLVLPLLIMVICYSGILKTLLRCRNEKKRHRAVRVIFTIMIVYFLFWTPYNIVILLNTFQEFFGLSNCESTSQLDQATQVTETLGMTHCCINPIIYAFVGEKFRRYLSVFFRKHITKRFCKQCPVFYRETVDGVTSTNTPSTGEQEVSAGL

CCR1 [2] = biological target: T2, CCR1 (Homo sapiens, UniProt P32246); set-up: Promega pNLF1-C (Nluc) #CCR010TN00; host or cells: HEK293T, transient (PEI); method as in PMID 30256641; details: binding; cited from earlier work
T2 sequence (P32246 1-355): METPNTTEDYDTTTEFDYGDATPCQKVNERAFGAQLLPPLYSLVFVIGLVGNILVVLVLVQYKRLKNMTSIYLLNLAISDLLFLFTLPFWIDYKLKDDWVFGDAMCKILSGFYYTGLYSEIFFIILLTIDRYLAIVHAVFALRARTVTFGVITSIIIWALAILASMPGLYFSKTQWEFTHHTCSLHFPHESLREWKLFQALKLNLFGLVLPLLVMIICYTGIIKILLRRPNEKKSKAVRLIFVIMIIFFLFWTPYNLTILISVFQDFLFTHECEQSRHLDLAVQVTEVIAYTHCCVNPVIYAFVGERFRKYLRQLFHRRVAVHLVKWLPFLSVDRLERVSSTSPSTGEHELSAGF

CCR2 [3] = biological target: T1, CCR2; set-up: method as in PMID 35838163; details: membrane-based setup; cited from earlier work
CCR1 [4] = biological target: T2, CCR1; set-up: Promega pNLF1-C (Nluc) #CCR010TN00; host or cells: HEK293T, transient (PEI); method as in PMID 35838163; details: cited from earlier work
CCR2 [5] = biological target: T1, CCR2; set-up: method as in PMID 35838163; details: cellular setup; cited from earlier work
CCR9 = biological target: T3, CCR9 (Homo sapiens, UniProt P51686); assay: NanoBRET-based assay for binding to the IABS of CCR9, as previously reported; details: compound at 20 μM; read-out: % inh. of tracer binding, CCR9
T3 construct: host or cells: HEK293T, transient
T3 sequence (P51686 1-369): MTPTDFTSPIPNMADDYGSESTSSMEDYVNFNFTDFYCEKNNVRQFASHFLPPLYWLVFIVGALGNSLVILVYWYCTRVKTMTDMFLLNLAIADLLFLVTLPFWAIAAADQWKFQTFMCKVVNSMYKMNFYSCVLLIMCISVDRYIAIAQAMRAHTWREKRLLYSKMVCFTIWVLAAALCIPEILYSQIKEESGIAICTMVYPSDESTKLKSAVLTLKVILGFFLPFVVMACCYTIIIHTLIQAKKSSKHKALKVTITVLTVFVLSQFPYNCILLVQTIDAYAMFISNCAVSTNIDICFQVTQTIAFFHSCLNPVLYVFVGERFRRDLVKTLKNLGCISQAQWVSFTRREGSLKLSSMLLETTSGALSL
Text: (§1) With 6 (Figure 1), a first lead structure for intracellular CCR1 inhibition that features an approximately 20-fold CCR1 over CCR2 selectivity was previously discovered by Ortiz Zacarías et al.([33]) In order to discover new chemotypes for selective CCR1 over CCR2 inhibition, we aimed to apply our novel NanoBRET competition binding assay for CCR1 in combination with our recently published CCR2 competition binding assay based on 7.[47] In our first attempt, we screened a small in-house library enriched with intracellular GPCR ligands and structural analogues thereof. […] Additionally, we tested 23 for binding to the IABS of CCR9 and CXCR2 using our recently reported NanoBRET-based assay platform (Figure 6C).[44],[45] In the course of these studies, we detected no binding of 23 to CCR9 and CXCR2 up to a concentration of 20 μM. Since cell lineage-dependent effects have been observed for CCR1 antagonists,[59] we studied the CCR1 over CCR2 selectivity of 23 by using a previously reported radioligand binding assay with membrane preparations from osteosarcoma (U2OS) cells stably expressing human CCR1 or CCR2.[33] […] In agreement with these previous reports,[33] we observed a reduction in CCR1 over CCR2 selectivity when moving from membrane-based binding assays to cell-based functional assays. […]

CCR2 [6] = biological target: T1, CCR2; assay: NanoBRET competition binding assay for CCR2 based on 7, as previously reported; details: compound at 100 μM; read-out: % inh. of tracer binding, CCR2
Text: With 6 (Figure 1), a first lead structure for intracellular CCR1 inhibition that features an approximately 20-fold CCR1 over CCR2 selectivity was previously discovered by Ortiz Zacarías et al.([33]) In order to discover new chemotypes for selective CCR1 over CCR2 inhibition, we aimed to apply our novel NanoBRET competition binding assay for CCR1 in combination with our recently published CCR2 competition binding assay based on 7.[47] In our first attempt, we screened a small in-house library enriched with intracellular GPCR ligands and structural analogues thereof. […] Additionally, we tested 23 for binding to the IABS of CCR9 and CXCR2 using our recently reported NanoBRET-based assay platform (Figure 6C).[44],[45] In the course of these studies, we detected no binding of 23 to CCR9 and CXCR2 up to a concentration of 20 μM. Since cell lineage-dependent effects have been observed for CCR1 antagonists,[59] we studied the CCR1 over CCR2 selectivity of 23 by using a previously reported radioligand binding assay with membrane preparations from osteosarcoma (U2OS) cells stably expressing human CCR1 or CCR2.[33] […] In agreement with these previous reports,[33] we observed a reduction in CCR1 over CCR2 selectivity when moving from membrane-based binding assays to cell-based functional assays. […] To investigate a potential signaling bias of 23, we tested the compound by means of a NanoBiT miniGi recruitment assay.[60] […] Thus, this indicated no strong signaling bias of 23 (Figures S9E and S10C). To elucidate the SAR of this new scaffold for selective CCR1 over CCR2 inhibition, we synthesized several analogues of 23 (24–40) and tested them by means of our NanoBRET competition binding assays (Schemes S2 and S3, Table 1, Figures 6F and S11). First, we aimed to examine the impact of the stereochemistry of 23 on CCR1 affinity. As for the structurally related pyrrolone 4, large differences in CCR2 affinity between the eutomer 4-[R] and the distomer 4-[S] were described.[61] […] Furthermore, we identified the 4-hydroxyphenethyl group at position 1 of the pyrrolone scaffold as highly important for CCR1 affinity and selectivity. Its presence seems to block CCR2 binding, also when combined with the structural features of the high-affinity CCR2 ligand 5, as exemplified by 24. Especially the 4-hydroxy group at this moiety is essential for CCR1 binding (see 25 and 26). […] In position 5 of the pyrrolone, several aromatic and aliphatic substituents were tolerated (see 31–35).

CCR1 [7] = biological target: T2, CCR1; assay: Membrane-based NanoBRET competition assay with 12 (2000 nM) and CCR1_Nluc membranes; type: binding; set-up: Promega pNLF1-C (Nluc) #CCR010TN00; host or cells: HEK293T, transient (PEI); details: 12 (2000 nM)
CCR1 [8] = biological target: T2, CCR1; assay: Live cell NanoBRET binding assay, HEK293T cells expressing CCR1_Nluc; set-up: Promega pNLF1-C (Nluc) #CCR010TN00; host or cells: HEK293T, transient (PEI); details: 12 (1000 nM), live HEK293T cells; read-out: Ki, live cells
CXCR2 = biological target: T4, CXCR2 (Homo sapiens, UniProt P25025); assay: NanoBRET-based assay for binding to the IABS of CXCR2, as previously reported; details: compound at 20 μM; read-out: % inh. of tracer binding, CXCR2
T4 construct: host or cells: HEK293T, transient
T4 sequence (P25025 1-360): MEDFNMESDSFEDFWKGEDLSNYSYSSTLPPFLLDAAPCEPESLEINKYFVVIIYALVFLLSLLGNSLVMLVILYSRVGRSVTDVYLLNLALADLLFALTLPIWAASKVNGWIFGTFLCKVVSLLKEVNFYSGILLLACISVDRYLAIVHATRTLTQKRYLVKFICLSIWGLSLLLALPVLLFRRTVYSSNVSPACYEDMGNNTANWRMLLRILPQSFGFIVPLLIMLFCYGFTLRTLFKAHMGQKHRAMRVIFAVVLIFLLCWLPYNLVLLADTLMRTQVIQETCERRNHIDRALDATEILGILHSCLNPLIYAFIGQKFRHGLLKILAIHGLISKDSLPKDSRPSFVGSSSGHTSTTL
Text: as §1

SMILES: O=C(C1=C(O)C(=O)N(c2ccc(Br)cc2F)C1c1cccc(Br)c1)C1CC1 (centres unmarked) [compound 6]
- CCR2, % @ 1 μM (CCR2 [1]): 45%
- CCR1 over CCR2 selectivity (CCR1 [2]): approximately 20 fold

SMILES: CN(C)c1ccc2c(-c3cc(C(=O)NCCOCCOCCn4cc(CNC(=O)c5ccc(Oc6ncc(Cl)cc6NS(=O)(=O)c6ccc(Cl)c(C(F)(F)F)c6)cc5)nn4)ccc3C(=O)[O-])c3ccc(=[N+](C)C)cc-3oc2c1 [compound 7]
- Kd (CCR2 [3]): 266 nM
- KD(CCR1) / binding to CCR1 (CCR1 [4]): no relevant binding
- Kd (CCR2 [5]): 114 nM

SMILES: NC(=O)CSc1nnc(-c2ccc(Cl)cc2)n1C1CCCCC1 [compound 43]
- inhibition at 20 µM (CCR9): 15%
- inhibition at 100 µM (CCR2 [6]): 29%
- Ki (CCR1 [7]; CCR1_Nluc membranes, read-out: Ki, CCR1 (converted)): 357 nM
- % inh. of tracer binding, CCR1 (CCR1 [7]; compound at 20 μM): ≥ 50%
- Ki (CCR1 [8]): 1290 nM
- inhibition at 20 µM (CXCR2): 2%
